Test results from US9321776B2, “Isochromene derivatives as phoshoinositide 3-kinases inhibitors” (CHIESI FARMACEUTICI S.p.A., priority 2013, dated 2016).
Where a name gives a salt, the structure may show the parent alone.

Columns and labels:
Assay in all cases: PI3K enzyme inhibitory activity in the cell free assay (ADP-Glo Kinase Assay)
Type in all cases: biochemical
PI3Kγ = biological target: T1, PI3Kγ (Homo sapiens, UniProt P48736); settings: human recombinant PI3Kγ, ATP 30 μM; read-out: PI3K gamma inhibition
T1 construct: purchased Millipore Ltd (Billerica, Mass.)

PI3Kδ = biological target: T2, PI3Kδ (Homo sapiens, UniProt O00329); settings: human recombinant PI3Kδ, ATP 80 μM; read-out: PI3K delta inhibition
T2 construct: purchased Millipore Ltd (Billerica, Mass.)
T2 sequence (O00329 1-1044): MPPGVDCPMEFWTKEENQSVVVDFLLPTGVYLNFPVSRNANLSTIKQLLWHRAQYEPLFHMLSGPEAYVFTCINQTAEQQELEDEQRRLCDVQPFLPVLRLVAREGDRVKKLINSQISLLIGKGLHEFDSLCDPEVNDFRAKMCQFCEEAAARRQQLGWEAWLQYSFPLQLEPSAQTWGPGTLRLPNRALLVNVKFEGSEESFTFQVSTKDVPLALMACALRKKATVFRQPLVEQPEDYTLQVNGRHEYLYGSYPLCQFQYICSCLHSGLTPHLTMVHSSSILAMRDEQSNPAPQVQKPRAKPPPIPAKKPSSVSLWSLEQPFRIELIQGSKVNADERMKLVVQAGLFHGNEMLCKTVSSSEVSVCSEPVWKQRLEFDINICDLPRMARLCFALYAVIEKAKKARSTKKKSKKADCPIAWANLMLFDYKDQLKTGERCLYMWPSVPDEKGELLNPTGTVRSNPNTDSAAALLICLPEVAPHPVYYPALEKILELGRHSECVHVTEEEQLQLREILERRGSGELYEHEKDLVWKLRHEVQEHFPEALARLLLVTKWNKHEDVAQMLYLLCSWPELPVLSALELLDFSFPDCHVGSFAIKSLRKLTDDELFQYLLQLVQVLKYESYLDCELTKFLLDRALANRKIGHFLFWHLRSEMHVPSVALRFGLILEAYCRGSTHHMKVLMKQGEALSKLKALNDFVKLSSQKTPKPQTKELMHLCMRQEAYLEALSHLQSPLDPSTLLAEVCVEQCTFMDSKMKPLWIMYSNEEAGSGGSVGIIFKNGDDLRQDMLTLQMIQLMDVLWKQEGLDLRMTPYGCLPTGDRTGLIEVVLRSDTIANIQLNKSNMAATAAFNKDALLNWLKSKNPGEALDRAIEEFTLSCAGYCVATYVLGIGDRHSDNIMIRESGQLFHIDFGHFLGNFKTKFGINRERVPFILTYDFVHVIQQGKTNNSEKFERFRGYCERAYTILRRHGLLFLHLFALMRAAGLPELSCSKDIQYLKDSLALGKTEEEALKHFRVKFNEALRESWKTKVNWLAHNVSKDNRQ

PI3Kβ = biological target: T3, PI3Kβ (Homo sapiens, UniProt P42338); settings: human recombinant PI3Kβ, ATP 100 μM; read-out: PI3K beta inhibition
T3 construct: purchased Millipore Ltd (Billerica, Mass.)
T3 sequence (P42338 whole entry): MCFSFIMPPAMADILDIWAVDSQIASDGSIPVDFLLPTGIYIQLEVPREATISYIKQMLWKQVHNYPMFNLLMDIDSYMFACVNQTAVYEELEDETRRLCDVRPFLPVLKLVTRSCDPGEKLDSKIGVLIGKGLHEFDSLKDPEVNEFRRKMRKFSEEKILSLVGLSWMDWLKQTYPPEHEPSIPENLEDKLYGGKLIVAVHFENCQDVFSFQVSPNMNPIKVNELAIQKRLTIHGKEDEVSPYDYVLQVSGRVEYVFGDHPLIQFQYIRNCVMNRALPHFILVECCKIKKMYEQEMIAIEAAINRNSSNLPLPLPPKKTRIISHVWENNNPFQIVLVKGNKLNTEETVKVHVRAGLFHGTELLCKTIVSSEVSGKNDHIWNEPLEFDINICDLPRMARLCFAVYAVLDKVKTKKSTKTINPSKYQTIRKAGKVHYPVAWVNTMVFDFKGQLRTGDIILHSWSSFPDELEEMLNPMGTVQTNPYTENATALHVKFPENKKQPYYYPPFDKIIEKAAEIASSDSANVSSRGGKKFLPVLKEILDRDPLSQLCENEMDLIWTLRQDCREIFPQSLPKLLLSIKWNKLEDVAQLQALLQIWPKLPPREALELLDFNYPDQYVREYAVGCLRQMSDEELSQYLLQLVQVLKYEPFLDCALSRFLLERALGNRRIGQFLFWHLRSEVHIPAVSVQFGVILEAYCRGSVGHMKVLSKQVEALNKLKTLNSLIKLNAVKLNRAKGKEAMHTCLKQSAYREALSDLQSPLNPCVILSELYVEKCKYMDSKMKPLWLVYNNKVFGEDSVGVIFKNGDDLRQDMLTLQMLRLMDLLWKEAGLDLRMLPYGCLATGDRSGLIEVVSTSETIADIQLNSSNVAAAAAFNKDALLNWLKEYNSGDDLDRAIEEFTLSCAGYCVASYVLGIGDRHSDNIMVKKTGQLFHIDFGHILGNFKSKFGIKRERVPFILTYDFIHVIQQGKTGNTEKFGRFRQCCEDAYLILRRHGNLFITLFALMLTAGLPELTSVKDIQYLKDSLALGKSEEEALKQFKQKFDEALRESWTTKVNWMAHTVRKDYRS

T1 sequence (P48736 whole entry): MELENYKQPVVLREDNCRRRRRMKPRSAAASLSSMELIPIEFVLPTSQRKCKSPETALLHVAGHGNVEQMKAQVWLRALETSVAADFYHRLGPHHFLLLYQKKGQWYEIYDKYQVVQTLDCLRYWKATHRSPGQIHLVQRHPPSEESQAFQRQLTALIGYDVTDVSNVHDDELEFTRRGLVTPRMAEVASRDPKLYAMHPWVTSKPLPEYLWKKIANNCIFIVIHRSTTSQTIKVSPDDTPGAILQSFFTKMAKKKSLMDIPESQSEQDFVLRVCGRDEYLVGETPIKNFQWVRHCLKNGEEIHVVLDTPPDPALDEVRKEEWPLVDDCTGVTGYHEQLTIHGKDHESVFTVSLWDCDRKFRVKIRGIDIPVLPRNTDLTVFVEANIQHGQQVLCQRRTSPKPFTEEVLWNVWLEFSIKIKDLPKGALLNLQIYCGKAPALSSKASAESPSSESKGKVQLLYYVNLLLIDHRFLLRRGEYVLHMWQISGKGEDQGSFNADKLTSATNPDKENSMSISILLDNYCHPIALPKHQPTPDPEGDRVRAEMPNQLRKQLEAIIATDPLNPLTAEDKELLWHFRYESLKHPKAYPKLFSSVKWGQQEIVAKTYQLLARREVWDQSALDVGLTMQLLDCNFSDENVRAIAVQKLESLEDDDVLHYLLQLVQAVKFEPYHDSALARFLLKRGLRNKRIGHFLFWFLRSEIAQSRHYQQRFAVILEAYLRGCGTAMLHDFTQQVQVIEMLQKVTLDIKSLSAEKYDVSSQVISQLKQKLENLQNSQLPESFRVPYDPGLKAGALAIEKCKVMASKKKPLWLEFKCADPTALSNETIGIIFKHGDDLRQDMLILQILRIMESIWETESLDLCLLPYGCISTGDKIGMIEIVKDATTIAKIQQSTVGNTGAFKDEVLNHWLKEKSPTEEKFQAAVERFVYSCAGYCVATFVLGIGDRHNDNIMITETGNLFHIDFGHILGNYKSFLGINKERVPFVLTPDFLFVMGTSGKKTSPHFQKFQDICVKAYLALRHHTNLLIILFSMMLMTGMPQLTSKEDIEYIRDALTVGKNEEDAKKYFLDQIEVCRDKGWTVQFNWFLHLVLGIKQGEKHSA

| IC50 (PI3Kγ) [nM] | IC50 (PI3Kδ) [nM] | Molecule | IC50 (PI3Kβ) [nM] |
| --- | --- | --- | --- |
| > 1000 | 10 to 1000 | Cc1n[nH]c2ccc(-c3nn(Cc4oc(=O)c5ccccc5c4-c4ccccc4)c4ncnc(N)c34)cc12 [Example 37, 3-((4-Amino-3-(3-methyl-1H-indazol-5-yl)-1H-pyrazolo[3,4-d]pyrimidin-1-yl)methyl)-4-phenyl-1H-isochromen-1-one] |  |
| 10 to 1000 | 10 to 1000 | COc1cncc(-c2nn(C(C)c3oc(=O)c4ccccc4c3-c3ccccc3)c3ncnc(N)c23)c1 (centres unmarked) [Example 57, 3-(1-(4-amino-3-(5-methoxypyridin-3-yl)-1H-pyrazolo[3,4-d]pyrimidin-1-yl)ethyl)-4-phenyl-1H-isochromen-1-one] |  |
| > 1000 | 10 to 1000 | CC(c1oc(=O)c2cc(Cl)ccc2c1-c1ccccc1)n1nc(-c2cc(O)cc(F)c2)c2c(N)ncnc21 (centres unmarked) [Example 163, 3-(1-(4-amino-3-(3-fluoro-5-hydroxyphenyl)-1H-pyrazolo[3,4-d]pyrimidin-1-yl)ethyl)-7-chloro-4-phenyl-1H-isochromen-1-one] |  |
| 10 to 1000 | 10 to 1000 | CC(Nc1ncnc2[nH]cnc12)c1oc(=O)c2ccccc2c1-c1ccc(CN2CCNCC2)cc1 (centres unmarked) [Example 126, 3-(1-(9H-purin-6-ylamino)ethyl)-4-(4-(piperazin-1-ylmethyl)phenyl)-1H-isochromen-1-one dihydrochloride] |  |
| > 1000 | > 1000 | O=c1oc(CSc2ncnc3[nH]cnc23)c(-c2ccccc2)c2ccccc12 [Example 10, 3-((9H-Purin-6-ylthio)methyl)-4-phenyl-1H-isochromen-1-one] |  |
| 10 to 1000 | 10 to 1000 | CC(c1oc(=O)c2ccccc2c1-c1ccccc1)n1nc(-c2cncc(F)c2)c2c(N)ncnc21 (centres unmarked) [Example 94, 3-(1-(4-amino-3-(5-fluoropyridin-3-yl)-1H-pyrazolo[3,4-d]pyrimidin-1-yl)ethyl)-4-phenyl-1H-isochromen-1-one] |  |
| 10 to 1000 | 10 to 1000 | CC(c1oc(=O)c2ccccc2c1-c1ccccc1)n1cnc2c(N)ncnc21 (centres unmarked) [Example 5, 3-(1-(6-Amino-9H-1-purin-9-yl)ethyl)-4-phenyl-1H-isochromen-1-one] |  |
| 10 to 1000 | < 10 | COc1ncc(-c2nn(C(C)c3oc(=O)c4ccccc4c3-c3ccccc3)c3ncnc(N)c23)cn1 (centres unmarked) [Example 55, 3-(1-(4-amino-3-(2-methoxypyrimidin-5-yl)-1H-pyrazolo[3,4-d]pyrimidin-1-yl)ethyl)-4-phenyl-1H-isochromen-1-one] |  |
| 10 to 1000 | < 10 | CC(c1oc(=O)c2ccccc2c1-c1ccccc1)n1nc(-c2ccc(CO)nc2)c2c(N)ncnc21 (centres unmarked) [Example 86, 3-(1-(4-amino-3-(6-(hydroxymethyl)pyridin-3-yl)-1H-pyrazolo[3,4-d]pyrimidin-1-yl)ethyl)-4-phenyl-1H-isochromen-1-one] |  |
| > 1000 | 10 to 1000 | CC(Nc1ncnc2ccsc12)c1oc(=O)c2ccccc2c1-c1ccc(CN2CCOCC2)s1 (centres unmarked) [Example 81, 4-(5-(morpholinomethyl)thiophen-2-yl)-3-(1-(thieno[3,2-d]pyrimidin-4-ylamino)ethyl)-1H-isochromen-1-one hydrochloride] |  |
| 10 to 1000 | 10 to 1000 | Cc1cccc(-c2c(CNc3ncnc4[nH]cnc34)oc(=O)c3ccccc23)c1 [Example 31, 3-((9H-Purin-6-ylamino)methyl)-4-m-tolyl-1H-isochromen-1-one] |  |
|  |  | 4-(1-acetyl-1,2,3,6-tetrahydropyridin-4-yl)-3-(1-(4-amino-3-(3-fluoro-5-hydroxyphenyl)-1H-pyrazolo[3,4-d]pyrimidin-1-yl)ethyl)-1H-isochromen-1-one single enantiomer [Example 166b] | 10 to 1000 |
| 10 to 1000 | 10 to 1000 | CC(C)Oc1ccc(-c2nn(C(C)c3oc(=O)c4ccccc4c3-c3ccccc3)c3ncnc(N)c23)cc1F (centres unmarked) [Example 93, 3-(1-(4-amino-3-(3-fluoro-4-isopropoxyphenyl)-1H-pyrazolo[3,4-d]pyrimidin-1-yl)ethyl)-4-phenyl-1H-isochromen-1-one] |  |
| 10 to 1000 | 10 to 1000 | CC(c1oc(=O)c2ccccc2c1-c1cccc(F)c1)n1cnc2c(N)ncnc21 (centres unmarked) [Example 7, 3-(1-(6-Amino-9H-purin-9-yl)ethyl)-4-(3-fluorophenyl)-1H-isochromen-1-one] |  |
| 10 to 1000 | 10 to 1000 | CC(c1oc(=O)c2ccccc2c1-c1ccccc1)n1nc(-c2ccncc2)c2c(N)ncnc21 (centres unmarked) [Example 54, 3-(1-(4-amino-3-(pyridin-4-yl)-1H-pyrazolo[3,4-d]pyrimidin-1-yl)ethyl)-4-phenyl-1H-isochromen-1-one] |  |
| 10 to 1000 | 10 to 1000 | Cc1cccc(-c2c(C(C)n3cnc4c(N)ncnc43)oc(=O)c3ccccc23)c1 (centres unmarked) [Example 6, 3-(1-(6-Amino-9H-purin-9-yl)ethyl)-4-m-tolyl-1H-isochromen-1-one] |  |
| > 1000 | 10 to 1000 | CC(Sc1ncnc2[nH]cnc12)c1oc(=O)c2ccccc2c1-c1cccc(F)c1 (centres unmarked) [Example 14, 3-(1-(9H-Purin-6-ylthio)ethyl)-4-(3-fluorophenyl)-1H-isochromen-1-one] |  |
|  | 10 to 1000 | CC(c1oc(=O)c2ccccc2c1-c1cccc(CCCN(C)C)c1)n1nc(-c2cc(O)cc(F)c2)c2c(N)ncnc21 (single isomer, unassigned) [Example 137a, 3-(1-(4-amino-3-(3-fluoro-5-hydroxyphenyl)-1H-pyrazolo[3,4-d]pyrimidin-1-yl)ethyl)-4-(3-(3-(dimethylamino)propyl)phenyl)-1H-isochromen-1-one single enantiomers] | > 1000 |
| > 1000 | 10 to 1000 | CC(Nc1ncnc2[nH]ncc12)c1oc(=O)c2ccccc2c1-c1ccccc1 (centres unmarked) [Example 43, 3-(1-(1H-pyrazolo[3,4-d]pyrimidin-4-ylamino)ethyl)-4-phenyl-1H-isochromen-1-one] |  |
| > 1000 | < 10 | CC(c1oc(=O)c2ccccc2c1-c1ccccc1)n1nc(-c2ccc(S(C)(=O)=O)nc2)c2c(N)ncnc21 (centres unmarked) [Example 97, 3-(1-(4-amino-3-(6-(methylsulfonyl)pyridin-3-yl)-1H-pyrazolo[3,4-d]pyrimidin-1-yl)ethyl)-4-phenyl-1H-isochromen-1-one] |  |
| 10 to 1000 | 10 to 1000 | CC(c1oc(=O)c2ccccc2c1-c1cccc(S(=O)(=O)N2CCOCC2)c1)n1ncc2c(N)ncnc21 (centres unmarked) [Example 16, 3-(1-(4-Amino-1H-pyrazolo[3,4-d]pyrimidin-1-yl)ethyl)-4-(3-(morpholinosulfonyl)phenyl)-1H-isochromen-1-one] |  |
| 10 to 1000 | < 10 | CC(c1oc(=O)c2ccccc2c1-c1ccc(CN2CCOCC2)cc1)n1nc(-c2cc(O)cc(F)c2)c2c(N)ncnc21 (centres unmarked) [Example 48, 3-(1-(4-amino-3-(3-fluoro-5-hydroxyphenyl)-1H-pyrazolo[3,4-d]pyrimidin-1-yl)ethyl)-4-(4-(morpholinomethyl)phenyl)-1H-isochromen-1-one hydrochloride] |  |
| 10 to 1000 | < 10 | CC(Nc1ncnc2[nH]cnc12)c1oc(=O)c2ccccc2c1-c1cccc(F)c1 (centres unmarked) [Example 32, 3-(1-(9H-purin-6-ylamino)ethyl)-4-(3-fluorophenyl)-1H-isochromen-1-one] |  |
| 10 to 1000 | 10 to 1000 | CC(c1oc(=O)c2ccccc2c1-c1cccc(N(C)C)c1)n1cnc2c(N)ncnc21 (centres unmarked) [Example 8, 3-(1-(6-Amino-9H-purin-9-yl)ethyl)-4-(3-(dimethylamino)phenyl)-1H-isochromen-1-one] |  |
| 10 to 1000 | 10 to 1000 | CC(c1oc(=O)c2ccccc2c1-c1ccccc1)n1nc(-c2cncc(CO)c2)c2c(N)ncnc21 (centres unmarked) [Example 85, 3-(1-(4-amino-3-(5-(hydroxymethyl)pyridin-3-yl)-1H-pyrazolo[3,4-d]pyrimidin-1-yl)ethyl)-4-phenyl-1H-isochromen-1-one] |  |
| > 1000 | 10 to 1000 | CC(Nc1ncnn2cccc12)c1oc(=O)c2ccccc2c1-c1ccccc1 (centres unmarked) [Example 83, 4-phenyl-3-(1-(pyrrolo[2,1-f][1,2,4]triazin-4-ylamino)ethyl)-1H-isochromen-1-one] |  |
| 10 to 1000 | < 10 | Cc1cccc(-c2c(C(C)Nc3ncnc4[nH]cnc34)oc(=O)c3ccccc23)c1 (centres unmarked) [Example 33, 3-(1-(9H-Purin-6-ylamino)ethyl)-4-m-tolyl-1H-isochromen-1-one] |  |
